Data set [1] deals with wheat powdery mildew (Erysiphe graminis). The experiment in a line: Control of wheat powdery mildew by formulated culture broths. It counts as in vivo. The following applies: 14 days. The protocol: B.subtilis NCIB 12376 was grown in a yeast peptone-glucose broth at 30° C. in an orbital shaker for 72 hours. The formulants listed in Table 9 were added to samples of culture broths at the concentrations given in Table 9 and stirred until dispersed or dissolved. The formulated broths were tested for control of wheat powdery mildew (Erysiphe graminis) by spraying to run-off wheat plants (cv. Aquila) at the two leaf stage (Zadocks GS 12) prior to inoculation with an aqueous suspension of E. graminis conidia. For each formulation 20 replicate pots of plants were sprayed. Ten pots from each treatment were then thoroughly drenched with a mist bench for 4 minutes, one hour after spraying. All pots were incubated in a glasshouse for 14 days before assessment of disease levels (Table 9).

The conditions of data set [2]: cited from earlier work.
For data set [3] the following is noted: cited from earlier work. This is another data set of the same source.

Where two headings read alike, the source gives them in different places.

With `CC(C)(C)C(=O)C(Oc1ccc(Cl)cc1)n1cncn1` (centres unmarked) [Triadimefon], the “Disease Level (% leaf area infected)” value turned out to be 0.1% in data set [1] (drenched 4 minutes, one hour after spraying, no treatment 5.6) and 0.2% in data set [1] (undrenched, no treatment 2.0).

On to Bacillomycin L, for which, in data set [2] (neutral pH), the Partition into butanol entry is recorded as “does not partition into butanol”. Besides, the Thermostability entry is “thermostable” in data set [3] (pH 3, 14 and 23); “thermostable” in data set [3] (pH 10, 14 and 23).

For Chaetomacin, the Solubility in acetone result in data set [2] (literature) was “soluble”.

Regarding Fungistatin, the “Behaviour on contact with water” value in data set [2] (water) is “forms an inactive gel when contacted with water”.

Take Iturin A: the Thermostability result in data set [3] (pH 3, 14 and 23) was “thermostable”; in data set [3] (pH 10, 14 and 23), “thermostable”.

As for Mycobacillin, the Solubility in acetone entry in data set [2] (literature) was “soluble”. In addition, the Solubility in water result in data set [2] (pH values of 7 and below, refs. 20 and 22) is reported as “insoluble”.

Consider Mycosubtilin, for which, in data set [2] (literature), the Solubility in butanol result was “insoluble” and the Solubility in ethanol result was “insoluble”. In data set [2] (methanol, literature), the Solubility in methanol result is recorded as “insoluble”.

Consider Rhizoctonia factor, for which, in data set [2] (literature), the Solubility in butanol entry is recorded as “insoluble” and the Solubility in ethanol entry is on record as “insoluble”. For the same compound, in data set [3] (pH 2 only, refs. 5 and 9), the Thermostability result is recorded as “thermostable only at pH 2”.

These data come from US5061495A, “Antibiotic derived from B. subtilis” (Agricultural Genetics Company Limited, priority 1988, dated 1991).
